Results reported in US20030199671A1, “Binding molecules for Fc-region polypeptides” (priority 2001, published 2003).
Several values for one entry are separate records, joined by “and”; a condition that tells them apart may be missing. Equal values may be shown once. Read-outs that look alike come from different tables or passages of the source. Positions of bridges follow the written chain, without caps; N, C: chain ends. Residues, ends and D or L forms follow the SMILES beside them.

Columns and labels:
[1] = biological target: IgG3 (Homo sapiens, UniProt P01860); type: binding; design: all human subtypes derived from myeloma patients; purchased Calbiochem 400124; host or cells: myeloma patients; settings: for % IgG Capture - Batch Binding, Human IgG3: Table 9, immobilized peptide, 5.0 mg/ml resin load
How it was run: (§1)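 Percent bound = control mass minus unbound mass, with unbound IgG read at A280 after 1–1.5 h room-temperature incubation with the peptide resin in PBST pH 7.2 or TBST pH 7.5. Bound IgG was eluted 30–60 min with 0.1 M citrate pH 4.0 and/or bicarbonate pH 8.5. Recovery is given as percent of total load.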

[2] = biological target: T1, human plasma IgG4 (Homo sapiens, UniProt P01861); test: Fluorescence anisotropy binding, Oregon Green labeled peptide
T1 construct: the individual human plasma IgG isoforms: IgG1, IgG2, IgG3, or IgG4; purchased Calbiochem; host or cells: human plasma
Description: (§2) Peptides were synthesized by BACHEM and then Oregon Green labeled and HPLC purified. Binding studies were performed using human plasma IgG isoforms: IgG1, IgG2, IgG3, and IgG4, obtained from Calbiochem.
(§3) Binding studies were carried out at either pH 4.0, 7.5, or 9.5, with or without salt in the following buffers:
(§4) 2) 10 mM Sodium Citrate, 500 mM Sodium Chloride, 0.01% Tween 20, pH 4.0;
(§5) 4) […], 500 mM Sodium Chloride, 0.01% Tween 20, pH 7.5;
(§6) 5) 10 mM Sodium Bicarbonate, 0.01% Tween 20, pH 9.5;
(§7) 6) 10 mM Sodium Bicarbonate, 500 mM Sodium Chloride, 0.01% Tween 20, pH 9.5; or […]

[3] = biological target: T2, human plasma IgG3 (Homo sapiens, UniProt P01860); test: as above
T2 construct: the individual human plasma IgG isoforms: IgG1, IgG2, IgG3, or IgG4; purchased Calbiochem; host or cells: human plasma
Description: as §2, §3, §4, §5, §6, §7

[4] = biological target: T3, human plasma IgG2 (Homo sapiens, UniProt P01859); test: as above
T3 construct: the individual human plasma IgG isoforms: IgG1, IgG2, IgG3, or IgG4; purchased Calbiochem; host or cells: human plasma
Description: as §2, §3, §4, §5, §6, §7

[5] = biological target: IgG4 (Homo sapiens, UniProt P01861); type: binding; design: all human subtypes derived from myeloma patients; purchased Calbiochem 400126; host or cells: myeloma patients; settings: for % IgG Capture - Batch Binding, Human IgG4: Table 9, immobilized peptide, 5.0 mg/ml resin load
How it was run: (§8)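 Read-out is A280 of unbound IgG (1.4 mg/ml extinction coefficient), with percent bound derived against non-filtered or negative controls. Targets were incubated with immobilized peptides in PBST or TBST for 1-1.5 h at room temperature. Hydrolyzed Sepharose and immobilized Protein A serve as negative and positive controls.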

[6] = system: goat IgG; type: binding; settings: Table 11; unfractionated IgG
How it was run: (§9)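 Static batch binding on immobilized peptide resin: unfractionated IgGs in PBST (pH 7.2) or TBST (pH 7.5), 1–1.5 h shaking at room temperature. Unbound IgG quantified by A280 against a buffer blank; percent bound from non-filtered or negative-control values. Elution at pH 8.5 bicarbonate and/or pH 4.0 citrate, expressed as percent of load.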

[7] = system: human IgG; type: binding; settings: Table 11; unfractionated IgG
How it was run: as §9

[8] = biological target: T4, human IgG2 (Homo sapiens, UniProt P01859); type: binding; settings: for % IgG Capture - Batch Binding, Human IgG2: Table 9, immobilized peptide, 5.0 mg/ml resin load
T4 construct: all human subtypes derived from myeloma patients; purchased Calbiochem 400122; host or cells: myeloma patients
How it was run: as §8

[9] = system: mouse IgG; type: binding; settings: Table 11; unfractionated IgG
How it was run: as §9

[10] = system: bovine IgG; type: binding; settings: Table 11; unfractionated IgG
How it was run: as §9

[11] = biological target: T5, human IgG1 (Homo sapiens, UniProt P01857); type: binding; settings: for % IgG Capture - Batch Binding, Human IgG1: Table 9, immobilized peptide, 5.0 mg/ml resin load
T5 construct: all human subtypes derived from myeloma patients; purchased Calbiochem 400120; host or cells: myeloma patients
How it was run: as §1

[12] = 10 nM Tris-HCl, 500 mM Sodium Chloride, pH 7.5, read-out: KD (μM) IgG4 pH 7.5 + salt
[13] = 10 mM Sodium Bicarbonate, 500 mM Sodium Chloride, pH 9.5, read-out: KD (μM) IgG4 pH 9.5 + salt
[14] = 10 mM Sodium Bicarbonate, pH 9.5, read-out: KD (μM) IgG4 pH 9.5 − salt
[15] = 10 mM Sodium Citrate, 500 mM Sodium Chloride, pH 4.0, read-out: KD (μM) IgG4 pH 4.0 + salt
[16] = 10 mM Sodium Citrate, pH 4.0, read-out: KD (μM) IgG4 pH 4.0 − salt
[17] = TBS, 0.01% Tween 20, pH 7.5, read-out: KD (μM) IgG4 TBS
[18] = 10 nM Tris-HCl, 500 mM Sodium Chloride, pH 7.5, read-out: KD (μM) IgG3 pH 7.5 + salt
[19] = 10 mM Sodium Bicarbonate, 500 mM Sodium Chloride, pH 9.5, read-out: KD (μM) IgG3 pH 9.5 + salt
[20] = 10 mM Sodium Bicarbonate, pH 9.5, read-out: KD (μM) IgG3 pH 9.5 − salt
[21] = 10 mM Sodium Citrate, 500 mM Sodium Chloride, pH 4.0, read-out: KD (μM) IgG3 pH 4.0 + salt
[22] = 10 mM Sodium Citrate, pH 4.0, read-out: KD (μM) IgG3 pH 4.0 − salt
[23] = 10 mM Tris-HCl, pH 7.5, read-out: KD (μM) IgG3 pH 7.5 − salt
[24] = TBS, 0.01% Tween 20, pH 7.5, read-out: KD (μM) IgG3 TBS
[25] = 10 nM Tris-HCl, 500 mM Sodium Chloride, pH 7.5, read-out: KD (μM) IgG2 pH 7.5 + salt
[26] = 10 mM Sodium Bicarbonate, 500 mM Sodium Chloride, pH 9.5, read-out: KD (μM) IgG2 pH 9.5 + salt
[27] = 10 mM Sodium Bicarbonate, pH 9.5, read-out: KD (μM) IgG2 pH 9.5 − salt
[28] = 10 mM Sodium Citrate, 500 mM Sodium Chloride, pH 4.0, read-out: KD (μM) IgG2 pH 4.0 + salt
[29] = 10 mM Sodium Citrate, pH 4.0, read-out: KD (μM) IgG2 pH 4.0 − salt
[30] = 10 mM Tris-HCl, pH 7.5, read-out: KD (μM) IgG2 pH 7.5 − salt
[31] = TBS, 0.01% Tween 20, pH 7.5, read-out: KD (μM) IgG2 TBS
[32] = Table 10, elution 0.1 M sodium bicarbonate buffer, pH 8.5
[33] = Table 10, elution 0.1 M sodium citrate buffer, pH 4.0

T4 sequence (P01859 1-326 isoform P01859-1): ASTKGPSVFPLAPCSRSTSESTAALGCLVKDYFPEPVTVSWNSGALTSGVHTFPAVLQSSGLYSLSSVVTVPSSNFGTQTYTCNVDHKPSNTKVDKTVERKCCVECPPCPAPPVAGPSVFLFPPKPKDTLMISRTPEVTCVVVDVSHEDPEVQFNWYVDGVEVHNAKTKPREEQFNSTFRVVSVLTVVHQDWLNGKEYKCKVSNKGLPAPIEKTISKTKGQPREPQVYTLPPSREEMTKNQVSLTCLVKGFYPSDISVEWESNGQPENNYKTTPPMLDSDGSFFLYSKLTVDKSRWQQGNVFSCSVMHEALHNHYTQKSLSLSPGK
T3 sequence (P01859 1-326 isoform P01859-1): as above
T5 sequence (P01857 1-330 isoform P01857-1): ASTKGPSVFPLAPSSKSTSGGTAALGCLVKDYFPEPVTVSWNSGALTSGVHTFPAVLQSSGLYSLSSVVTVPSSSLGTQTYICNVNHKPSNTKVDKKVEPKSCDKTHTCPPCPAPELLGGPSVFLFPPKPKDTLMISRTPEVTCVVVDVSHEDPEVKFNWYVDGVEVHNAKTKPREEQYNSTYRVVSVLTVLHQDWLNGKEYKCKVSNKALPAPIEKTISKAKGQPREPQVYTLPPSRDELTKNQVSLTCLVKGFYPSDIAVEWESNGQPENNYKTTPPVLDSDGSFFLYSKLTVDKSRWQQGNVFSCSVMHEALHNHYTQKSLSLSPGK
T1 sequence (P01861 1-327 isoform P01861-1): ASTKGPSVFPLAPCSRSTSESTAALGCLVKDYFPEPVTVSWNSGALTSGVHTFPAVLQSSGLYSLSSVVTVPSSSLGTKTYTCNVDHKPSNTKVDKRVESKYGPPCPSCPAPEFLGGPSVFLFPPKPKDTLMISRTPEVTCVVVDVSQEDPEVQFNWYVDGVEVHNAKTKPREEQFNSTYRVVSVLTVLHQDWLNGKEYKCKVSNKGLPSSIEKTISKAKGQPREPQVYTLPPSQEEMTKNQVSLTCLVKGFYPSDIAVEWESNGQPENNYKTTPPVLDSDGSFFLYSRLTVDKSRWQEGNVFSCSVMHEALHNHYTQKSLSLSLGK
Sequence of IgG4 (P01861 1-327 isoform P01861-1): as above
Sequence of IgG3 (P01860 1-377 isoform P01860-1): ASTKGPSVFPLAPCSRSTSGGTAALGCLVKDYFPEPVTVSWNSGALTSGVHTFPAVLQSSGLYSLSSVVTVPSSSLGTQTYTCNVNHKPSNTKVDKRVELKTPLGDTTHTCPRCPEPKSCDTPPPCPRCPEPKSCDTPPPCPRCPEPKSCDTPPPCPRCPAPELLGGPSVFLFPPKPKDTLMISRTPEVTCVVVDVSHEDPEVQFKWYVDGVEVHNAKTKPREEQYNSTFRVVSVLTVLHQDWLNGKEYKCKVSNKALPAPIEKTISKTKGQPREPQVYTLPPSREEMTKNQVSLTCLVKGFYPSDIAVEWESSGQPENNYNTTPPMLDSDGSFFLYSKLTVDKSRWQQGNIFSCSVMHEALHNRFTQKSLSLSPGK
T2 sequence (P01860 1-377 isoform P01860-1): as above

% IgG Capture - Batch Binding, Human IgG3 [1] [%] | Kd [2, 12] [µM] | Kd [2, 13] [µM] | Kd [2, 14] [µM] | Kd [2, 15] [µM] | Kd [2, 16] [µM] | Kd [2, 17] [µM] | Kd [3, 18] [µM] | Kd [3, 19] [µM] | Kd [3, 20] [µM] | Kd [3, 21] [µM] | Kd [3, 22] | Kd [3, 23] [µM] | % IgG Capture - Batch Binding, Human IgG4 [5] [%] | % IgG Capture - Batch Binding, Goat IgG [6] [%] | % IgG Capture - Batch Binding, Human IgG [7] [%] | % IgG Capture - Batch Binding, Human IgG2 [8] [%] | % IgG Capture - Batch Binding, Mouse IgG [9] [%] | % IgG Capture - Batch Binding, Bovine IgG [10] [%] | % IgG Capture - Batch Binding, Human IgG1 [11] [%] | Compound | also measured
79 | > 10 | > 10 | > 10 | > 10 | ~2 | > 10 | 0.3 ± 0.03 | 0.3 ± 0.1 | > 10 | 0.04 to 0.3 | ~0.02 µM and 0.02 µM | > 10 | 2 | 0 | 9 | 0 | 4 | 2 | 6 | CC(=O)N[C@@H](C)C(=O)NCC(=O)N[C@@H](C)C(=O)N[C@@H](C)C(=O)N[C@H](C(=O)N[C@H]1CSSC[C@@H](C(=O)N[C@H](C(=O)N[C@@H](CC(=O)O)C(=O)N[C@@H](CO)C(=O)N2CCC[C@H]2C(=O)NCC(=O)N2CCC[C@H]2C(=O)N[C@@H](CCC(=O)O)C(=O)NCC(=O)NCC(=O)NCC(=O)N[C@@H](CCCCN)C(N)=O)[C@@H](C)O)NC(=O)[C@H](Cc2ccccc2)NC(=O)[C@H](Cc2c[nH]c3ccccc23)NC(=O)[C@H](CCC(N)=O)NC(=O)[C@H](Cc2ccc(O)cc2)NC(=O)[C@H](Cc2ccc(O)cc2)NC(=O)[C@H](Cc2c[nH]c3ccccc23)NC(=O)[C@H](Cc2ccc(O)cc2)NC(=O)[C@H](CO)NC(=O)[C@H]([C@@H](C)O)NC(=O)[C@H](CO)NC1=O)[C@@H](C)O [DX398] | Kd [3, 24]: > 10 µM; Kd [4, 25]: > 10 µM; Kd [4, 26]: > 10 µM; Kd [4, 27]: > 10 µM; Kd [4, 28]: > 10 µM; Kd [4, 29]: ~2 µM; Kd [4, 30]: > 10 µM; Kd [4, 31]: > 10 µM
35 | – | – | – | – | – | – | – | – | – | – | – | – | 6 | 0 | 20 | 24 | 1 | 0 | 34 | CC(=O)NCC(=O)N[C@@H](CC(=O)O)C(=O)N[C@@H](CC(=O)O)C(=O)N[C@@H](CC(=O)O)C(=O)N[C@@H](Cc1c[nH]cn1)C(=O)N[C@H]1CSSC[C@@H](C(=O)N2CCC[C@H]2C(=O)N[C@@H](Cc2c[nH]cn2)C(=O)NCC(=O)N[C@@H](CCC(=O)O)C(=O)N2CCC[C@H]2C(=O)NCC(=O)N2CCC[C@H]2C(=O)N[C@@H](CCC(=O)O)C(=O)NCC(=O)NCC(=O)NCC(=O)N[C@@H](CCCCN)C(N)=O)NC(=O)[C@H](CCC(=O)O)NC(=O)[C@H](CO)NC(=O)[C@H](CC(N)=O)NC(=O)[C@H](Cc2ccccc2)NC(=O)[C@H](Cc2c[nH]c3ccccc23)NC(=O)[C@H](CCC(=O)O)NC(=O)[C@H](CCCNC(=N)N)NC(=O)[C@H](Cc2ccccc2)NC(=O)[C@H](Cc2c[nH]c3ccccc23)NC(=O)[C@H](Cc2ccc(O)cc2)NC1=O [DX252] (Ac-GDDDHCYWFREWFNSECPHGEPGPEGGGK-NH2; disulfide 6-17 (inferred)) | Human IgG3 bdg % (% of Total Load) ([1]; Table 10, batch binding): 44%; Human IgG3 elu pH 8.5 (% of Total Load) [1, 32]: 8%; Human IgG3 elu pH 4.0 (% of Total Load) [1, 33]: 5%; Human IgG4 bdg % (% of Total Load) ([5]; Table 10, batch binding): 14%; Human IgG4 elu pH 8.5 (% of Total Load) [5, 32]: 4%; Human IgG2 bdg % (% of Total Load) ([8]; Table 10, batch binding): 37%; Human IgG2 elu pH 8.5 (% of Total Load) [8, 32]: 8%; Human IgG2 elu pH 4.0 (% of Total Load) [8, 33]: 10%; Human IgG1 bdg % (% of Total Load) ([11]; Table 10, batch binding): 37%; Human IgG1 elu pH 8.5 (% of Total Load) [11, 32]: 19%; Human IgG1 elu pH 4.0 (% of Total Load) [11, 33]: 30%
26 | > 10 | > 10 | > 10 | > 10 | > 10 | > 10 | > 10 | > 10 | > 10 | ~2 | ~2 µM | > 10 | 3 | 0 | 4 | 11 | 0 | 0 | 4 | CC(=O)N[C@@H](C)C(=O)NCC(=O)N1CCC[C@H]1C(=O)N[C@@H](Cc1c[nH]cn1)C(=O)N[C@@H](CC(N)=O)C(=O)N[C@H]1CSSC[C@@H](C(=O)N[C@@H](CCCCN)C(=O)N[C@@H](Cc2c[nH]c3ccccc23)C(=O)N[C@@H](Cc2ccccc2)C(=O)N2CCC[C@H]2C(=O)NCC(=O)N2CCC[C@H]2C(=O)N[C@@H](CCC(=O)O)C(=O)NCC(=O)NCC(=O)NCC(=O)N[C@@H](CCCCN)C(N)=O)NC(=O)[C@H](Cc2ccc(O)cc2)NC(=O)[C@H](Cc2c[nH]c3ccccc23)NC(=O)[C@H](Cc2ccc(O)cc2)NC(=O)[C@H](Cc2c[nH]cn2)NC(=O)[C@H](CC(=O)O)NC(=O)[C@H](CC(=O)O)NC1=O [DX389] (Ac-AGPHNCDDHYWYCKWFPGPEGGGK-NH2; disulfide 6-13 (inferred)) | Kd ([2]; 10 mM Tris-HCl, pH 7.5, read-out: KD (μM) IgG4 pH 7.5 − salt): > 10 µM; Kd [3, 24]: > 10 µM; Kd [4, 25]: > 10 µM; Kd [4, 26]: > 10 µM; Kd [4, 27]: > 10 µM; Kd [4, 28]: > 10 µM; Kd [4, 29]: > 10 µM; Kd [4, 30]: > 10 µM; Kd [4, 31]: > 10 µM
